Source: PMC9313110, “Modulating the Fibrillization of Parathyroid-Hormone (PTH) Peptides: Azo-Switches as Reversible and Catalytic Entities” (Biomedicines, 2022)
Values after ≈ are worked out from the molar mass of the structure shown. Starred links: 1 amine or outer side, 2 acyl side, 3 side chain; linkers in the order of their positions; H or OH if unused. Non-standard residues stand in square brackets, D forms with d. Residues, ends and D or L forms follow the SMILES beside them. X3 = O=C(c1cccc(N=Nc2ccc(CN[*:1])cc2)c1)[*:2]

Experiments:
[1] = ThT-monitored fibrillization assay of the pure peptides; format: physicochemical; conditions: pure peptide 100 μM; 50 μM ThT; 50 mM Na2HPO4, pH 7.4; 37 °C; fluorescence ex 460 nm/em 485 nm; average of triplets
Method: ThT-monitored fibrillization assays of artificial peptides and mixtures with PTH25–37 were investigated by fluorescence intensity measurements using thioflavin T (ThT) as fluorescent dye. Lyophilized peptides were dissolved in 50 mM Na2HPO4 buffer solution with a pH value of 7.4 in a concentration of 2 mg/mL and kept on ice for the next steps. The samples were centrifuged at 13,000× […] for 10 s and the concentrations were determined with a JASCO V-660 absorbance spectrometer (JASCO, Pfungstadt, Germany; PTH25–37 by absorbance at 205 nm and the molar extinction coefficient of 49,310 cm^−1M^−1; trans-AzoPTH25–37 by absorbance at 327 nm and the molar extinction coefficient of 13,000 cm^−1M^−1). Cis-AzoPTH25–37 was produced as described before. […] The fluorescence intensity was monitored at 37 °C using a BMG FLUOStar Omega multi-mode plate reader (BMG LABTECH, Ortenberg, Germany) using fluorescence excitation and emission wavelengths at 460 nm and 485 nm, respectively. […]
In order to determine the kinetics of fibril formation of both modified AzoPTH25–37 isomers a thioflavin T (ThT)-monitored fibrillization assay was conducted and compared to PTH25–37. […] Causing a large red shift of fluorescence excitation of ThT, which in turn enables the selective excitation of amyloid fibril-bound ThT and therefore the in situ observation of fibril formation. […]

[2] = Maximum solubility in fibrillization buffer; format: physicochemical; conditions: 50 mM Na2HPO4 buffer (pH 7.4), UV-Vis absorption (ε = 49310 M-1cm-1 at 205 nm for PTH25-37, ε = 13000 M-1cm-1 at 327 nm for 3,4'-AMPB peptides)
Method: ThT-monitored fibrillization assays of artificial peptides and mixtures with PTH25–37 were investigated by fluorescence intensity measurements using thioflavin T (ThT) as fluorescent dye. Lyophilized peptides were dissolved in 50 mM Na2HPO4 buffer solution with a pH value of 7.4 in a concentration of 2 mg/mL and kept on ice for the next steps. The samples were centrifuged at 13,000× […] for 10 s and the concentrations were determined with a JASCO V-660 absorbance spectrometer (JASCO, Pfungstadt, Germany; PTH25–37 by absorbance at 205 nm and the molar extinction coefficient of 49,310 cm^−1M^−1; trans-AzoPTH25–37 by absorbance at 327 nm and the molar extinction coefficient of 13,000 cm^−1M^−1). Cis-AzoPTH25–37 was produced as described before. The solutions were centrifuged at 10,000 rpm for 1 h at 4 °C, the supernatant was transferred to another tube. The protein solutions were mixed in the desired ration and diluted with 50 mM Na2HPO4 buffer (pH 7.4) to obtain final concentrations of 0/100 μM PTH25–37, 50 μM ThT, and 0/10/20/50/100 μM AzoPTH25–37. For each sample, a total volume of 480 μL was prepared and 3 × 150 μL were transferred to a medium binding 96-well plate (Greiner Bio-One, Kremsmünster, Austria). The plate was sealed with a microplate cover. The fluorescence intensity was monitored at 37 °C using a BMG FLUOStar Omega multi-mode plate reader (BMG LABTECH, Ortenberg, Germany) using fluorescence excitation and emission wavelengths at 460 nm and 485 nm, respectively. One measurement cycle of 5 min consisted of double-orbital shaking for 150 s and incubating for 150 s.
2. Peptide Characterisation
Table S1: Primary sequence and solubility in 50 mM Na2PO4 buffer (pH 7.4) of peptides AzoPTH25-37 and SP1-
peptide primary sequencea solubility [μM]b
a Azo = 3,4’-AMPB; b maximum solubility was determined via UV-Vis absorption spectroscopy
2.2. HPLC- and MALDI-ToF-data
Figure S1: (A) HPLC-trace of AzoPTH25-37 (cis-isomer at 5.353, trans-isomer at 5.530). (B) MALDI-spectrum

[3] = format: physicochemical
Excerpt: We first studied the photophysical properties of the cis-trans-isomerization of AzoPTH25–37 (Figure 1b) by UV/Vis spectroscopy and HPLC analysis in pure water in order to minimize effects of a potential self-assembly and to quantify the generated amounts of the respective cis/trans-modified peptides before and after photoswitching. The UV/Vis spectra for the pure isomers (Figure S6) were separated from the spectra of trans-enriched AzoPTH25–37 in the thermodynamically stable state after synthesis and in the cis-enriched photostationary state (PSS, Figure 3) with Wolfram Mathematica 12.2. […] Both isomers display two isobestic points at 278 nm and 388 nm. They represent in the thermodynamically stable state a cis-trans ratio of 3:97. Under irradiation with UV light (340 nm), the cis-content could be increased of up to 82% in the cis-enriched PSS. Visible light (405 nm) yields 76% of the trans-isomer in the trans-enriched PSS via the back reaction. The difference of the trans-content between the trans-enriched PSS at 405 nm and the thermodynamically stable state arises from the overlapping of the n → π* transitions of both isomers at this wavelength. The rate of thermal cis-to-trans isomerization of AzoPTH25–37 follows first-order kinetics, and was determined by monitoring the increase of the π → π* absorption band at 327 nm (Figure S7) via time-dependent UV measurements.
2.3. […]

[4] = in the dark; ref [41],[42]; cited from earlier work

Structure (SMILES) | solubility (maximum solubility) [2] [µM] | further results
CC(C)C[C@H](NC(=O)[C@H](C)NC(=O)[C@@H](NC(=O)[C@H](Cc1ccccc1)NC(=O)[C@H](CC(N)=O)NC(=O)[C@H](Cc1c[nH]cn1)NC(=O)[C@@H](NC(=O)[C@H](CC(=O)O)NC(=O)[C@H](CCC(N)=O)NC(=O)[C@H](CC(C)C)NC(=O)[C@H](CCCCN)NC(=O)[C@H](CCCCN)NC(=O)[C@@H](N)CCCNC(=N)N)C(C)C)C(C)C)C(=O)O [PTH25–37] (H-RKKLQDVHNFVAL-OH) | > 1000 | tchar (time at which 50% of the maximum fluorescence was reached) [1]: 10.9 h; tlag (lag time, time before an increase in the fluorescence signal occurs) [1]: 7.2 h
CC(C)C[C@H](NC(=O)[C@H](C)NC(=O)[C@@H](NC(=O)[C@H](Cc1ccccc1)NC(=O)[C@H](CC(N)=O)NC(=O)[C@H](Cc1c[nH]cn1)NC(=O)c1cccc(N=Nc2ccc(CNC(=O)[C@@H](NC(=O)[C@H](CC(=O)O)NC(=O)[C@H](CCC(N)=O)NC(=O)[C@H](CC(C)C)NC(=O)[C@H](CCCCN)NC(=O)[C@H](CCCCN)NC(=O)[C@@H](N)CCCNC(=N)N)C(C)C)cc2)c1)C(C)C)C(=O)O [SP2] (H-RKKLQDV[X3]HNFVAL-OH) | 55 (≈ 99.3 µg/mL) | –
CC(C)C[C@H](NC(=O)[C@H](C)NC(=O)[C@@H](NC(=O)[C@H](Cc1ccccc1)NC(=O)[C@H](CC(N)=O)NC(=O)[C@H](Cc1c[nH]cn1)NC(=O)c1cccc(N=Nc2ccc(CNC(=O)[C@H](CC(=O)O)NC(=O)[C@H](CCC(N)=O)NC(=O)[C@H](CC(C)C)NC(=O)[C@H](CCCCN)NC(=O)[C@H](CCCCN)NC(=O)[C@@H](N)CCCNC(=N)N)cc2)c1)C(C)C)C(=O)O [AzoPTH25–37] (H-RKKLQD[X3]HNFVAL-OH) | 240 (≈ 409 µg/mL) | photostability in the dark [3]: more than 20 h; solubility (maximum solubility) ([2]; listed as AzoPTH25-37): 250 µM (≈ 426 µg/mL)
CC(C)C[C@H](NC(=O)[C@H](C)NC(=O)[C@@H](NC(=O)[C@H](Cc1ccccc1)NC(=O)[C@H](CC(N)=O)NC(=O)[C@H](Cc1c[nH]cn1)NC(=O)c1cccc(N=Nc2ccc(CNC(=O)[C@H](CCC(N)=O)NC(=O)[C@H](CC(C)C)NC(=O)[C@H](CCCCN)NC(=O)[C@H](CCCCN)NC(=O)[C@@H](N)CCCNC(=N)N)cc2)c1)C(C)C)C(=O)O [SP4] (H-RKKLQ[X3]HNFVAL-OH) | 25 (≈ 39.8 µg/mL) | –
CC(C)C[C@H](NC(=O)[C@H](C)NC(=O)[C@@H](NC(=O)[C@H](Cc1ccccc1)NC(=O)[C@H](CC(N)=O)NC(=O)[C@H](Cc1c[nH]cn1)NC(=O)[C@@H](NC(=O)c1cccc(N=Nc2ccc(CNC(=O)[C@H](CCC(N)=O)NC(=O)[C@H](CC(C)C)NC(=O)[C@H](CCCCN)NC(=O)[C@H](CCCCN)NC(=O)[C@@H](N)CCCNC(=N)N)cc2)c1)C(C)C)C(C)C)C(=O)O [SP3] (H-RKKLQ[X3]VHNFVAL-OH) | 35 (≈ 59.2 µg/mL) | –
CC(C)C[C@H](NC(=O)[C@H](C)NC(=O)[C@@H](NC(=O)[C@H](Cc1ccccc1)NC(=O)[C@H](CC(N)=O)NC(=O)[C@H](Cc1c[nH]cn1)NC(=O)[C@@H](NC(=O)c1cccc(N=Nc2ccc(CNC(=O)[C@H](CC(=O)O)NC(=O)[C@H](CCC(N)=O)NC(=O)[C@H](CC(C)C)NC(=O)[C@H](CCCCN)NC(=O)[C@H](CCCCN)NC(=O)[C@@H](N)CCCNC(=N)N)cc2)c1)C(C)C)C(C)C)C(=O)O [SP1] (H-RKKLQD[X3]VHNFVAL-OH) | 60 (≈ 108 µg/mL) | –
NCc1ccc(N=Nc2cccc(C(=O)O)c2)cc1 [3,4′-AMPB, 3-{[(4-aminomethyl)phenyl]diazenyl}benzoic acid] | – | half-life time of thermal back-isomerization of the photoswitch [4]: more than 20 h
